According to publication PMC6891555, “Thuwalallenes A–E and Thuwalenynes A–C: New C15 Acetogenins with Anti-Inflammatory Activity from a Saudi Arabian Red Sea Laurencia sp” (Marine Drugs, 2019):
“Also recorded” adds a separate entry of the source.

Assays:
[1] = system: NO production in LPS-treated RAW 264.7 cells; test: Inhibition of NO production (Griess reaction) in LPS-treated RAW 264.7 macrophages; format: cell-based, mouse; settings: for IC50: Mus musculus, RAW264.7, LPS (100 ng/mL, 48 h)-treated RAW 264.7 cells, 1 h pre-treatment, Griess reaction, vs vehicle Carbowax 400; for anti-inflammatory activity (inhibition of NO production), in words: TLR4 (LPS) stimulated macrophages
Description: (§1) The IC50 values for the inhibition of NO production were determined in LPS-treated RAW 264.7 cells in comparison to cells treated with the vehicle (Carbowax 400) only (Table 3, Figure S1). To verify that the anti-inflammatory activity observed was not due to cytotoxic effect, the potential cytotoxicity of 1–6, 8, 10 and 11 was evaluated using the MTT assay following 24, 48 and 72 h of treatment in RAW 264.7 macrophages (Table 3, Figure S2).
(§2) Mouse macrophage cell line RAW 264.7 was cultured in DMEM medium (cat. # 21885-025, Gibco, Thermo Fisher Scientific, Waltham, MA, USA) supplemented with 10% heat inactivated fetal bovine serum (cat. # 10270-106, Gibco, Thermo Fisher Scientific, Waltham, MA, USA) and 1% penicillin-streptomycin (cat. # 15070-063, Gibco, Thermo Fisher Scientific, Waltham, MA, USA). Cells were cultured in 37 °C and 5% CO2. Each compound was diluted in Carbowax^TM 400 + 10% ethanol (cat. # 1.00983, Merck, Darmstadt, Germany), used also as control solvent. Final concentration in culture was 0.1% v/v carbowax and 0.01% v/v ethanol. RAW 264.7 macrophages were activated using 100 ng/mL lipopolysaccharide (LPS) (L2630, Merck, Darmstadt, Germany). In IC50 determination experiments, macrophages were pre-treated for 1 h with the respective compound prior to LPS stimulation.
30 × 10^4 RAW 264.7 mouse macrophages were plated in 24-well plates over-night with 0.5 mL complete medium. Cells were pretreated for 1 h with the respected compound concentration and then stimulated with 100 ng/mL LPS (L2630, Merck, Darmstadt, Germany) for 48 h. The amount of nitrite, an oxidative product of NO, was measured in culture supernatant of each sample using the Griess reaction. 100 μL of supernatant was mixed with 100 μL of sulfanilamide solution (1% sulfanilamide in 5% H3PO4) and incubated for 5 min at room temperature. Then, 100 μL of NED solution (0.1% N-1-napthylethylenediamine dihydrochlorite in H2O) was added and the absorbance was measured in an automated microplate reader (Infinite 200 PRO, Tecan, Männedorf, Switzerland) at 540 nm. Nitrite concentration was calculated using a sodium nitrite standard curve. All incubations were performed in the dark.

RAW 264.7 macrophages = test: Cytotoxicity by MTT assay in RAW 264.7 macrophages; format: cell-based, mouse; settings: for concentration above which cytotoxicity was observed: 72 h following treatment
Description: as §1, §2
(§3) 3.5 × 10^3 RAW 264.7 mouse macrophages were seeded in 96-well plate and cultured over night. Cells were subsequently treated with the respective compound concentration and incubated for 24, 48 and 72 h. Number of cells was measured prior to treatment and used as normalisation control. Thiazolyl Blue Tetrazolium Bromide (MTT) (A2231.001, Applichem GmbH, Darmstadt, Germany) was added to the cells in a final concentration of 0.5 mg/mL and then cells were incubated at 37 °C and 5% CO2 for 4 h. The supernatant was discarded and cells were lysed with 2-propanol (33539, Honeywell, Charlotte, NC, USA) with 0.4% HCl (30721, Merck, Darmstadt, Germany). The absorbance of each sample was measured in an automated microplate reader (Infinite 200 PRO, Tecan, Männedorf, Switzerland) at 600 nm. The average OD of each treated sample was normalized to the OD of the control sample and statistical analysis was performed using Graphpad Prism 7.0 (GraphPad Software, San Diego, CA, USA).

[2] = Cytotoxicity by MTT assay in RAW 264.7 macrophages; format: cell-based, mouse; settings: mouse, 72 h of treatment
Description: as §1, §2, §3

[3] = Stability of isolated metabolites (observation); format: physicochemical; settings: reason why bioactivity was not evaluated

| SMILES | IC50 [1] | stability of the metabolite, in words [3] | concentration above which cytotoxicity was observed (RAW 264.7 macrophages) | IC50 at 72 h [2] | anti-inflammatory activity (inhibition of NO production), in words [1] | cytotoxicity, in words (RAW 264.7 macrophages) | concentration above which significant cytotoxicity was observed (RAW 264.7 macrophages) | IC50 [2] |
| --- | --- | --- | --- | --- | --- | --- | --- | --- |
| CC[C@@H]1O[C@@H]2C[C@@H]3O[C@@H]3C[C@H](C=C=CBr)O[C@@H]2C[C@H]1Br (relative stereo) [Compound 2, Thuwalallene B] | 13.2 ± 0.57 µM |  | > 31.25 µM | > 31.2 µM |  |  |  |  |
| C#C/C=C\C[C@@H]1O[C@@H]2C[C@@H](Br)[C@H](CC)O[C@@H]2C[C@@H]1Br (relative stereo) [Compound 4, Thuwalenyne A] | > 62.5 µM |  |  | > 62.5 µM | did not exhibit any activity; also recorded: did not exhibit anti-inflammatory activity | did not exhibit anti-inflammatory activity or cytotoxicity |  |  |
| C#C/C=C\CC(Br)[C@H]1C[C@H]2O[C@@H](CC)[C@H](Br)C[C@H]2O1 (relative stereo) [Compound 6, Thuwalenyne B] | 37.4 ± 2.51 µM |  | higher than 15.62 μM | > 15.6 µM |  |  |  |  |
| C#C/C=C\C/C=C\C[C@H]1O[C@@H](CC)[C@H](Br)C[C@H]1O (relative stereo) [Compound 7, Thuwalenyne C] |  | proven to be unstable |  |  |  |  |  |  |
| CCC1OC2CC3OC3CC(C=C=CBr)OC2CC1Br (centres unmarked) [Compound 1, Thuwalallene A] | 26 ± 3.73 µM |  | higher than 15.62 μM | > 15.6 µM |  |  |  |  |
| CC(C)(O)[C@H]1CC[C@](C)([C@@H](O)CC[C@](C)(O)[C@H]2CC[C@H]3O[C@@H]([C@]4(C)CC[C@@H](Br)C(C)(C)O4)CC[C@]3(C)O2)O1 [Compound 10, thyrsiferol] |  |  |  | > 0.1 µM | IC50 values in the low nM scale | without significant cytotoxicity | above 100 nM |  |
| CC(=O)OC(C)(C)C1CCC(C)(C(O)CCC(C)(O)C2CCC3OC(C4(C)CCC(Br)C(C)(C)O4)CCC3(C)O2)O1 (centres unmarked) [Compound 11, 23-acetylthyrsiferol] | 0.00263 µM |  |  |  | IC50 values in the low nM scale | without significant cytotoxicity | above 10 nM | > 0.01 µM |

The next lines start with results.

| IC50 [1] | stability of the metabolite, in words [3] | SMILES | concentration above which cytotoxicity was observed (RAW 264.7 macrophages) | IC50 at 72 h [2] | anti-inflammatory activity (inhibition of NO production), in words [1] | cytotoxicity, in words (RAW 264.7 macrophages) | concentration above which significant cytotoxicity was observed (RAW 264.7 macrophages) | IC50 [2] |
| --- | --- | --- | --- | --- | --- | --- | --- | --- |
| 4.18 ± 0.48 µM |  | CC[C@@H]1O[C@@H]2C/C=C\C[C@H](C=C=CBr)O[C@@H]2C[C@H]1Br (relative stereo) [Compound 3, Thuwalallene C] | higher than 15.62 μM | > 15.6 µM |  |  |  |  |
| 12.4 ± 1.04 µM |  | CCC1OC2CC(C(O)CC(Cl)C=C=CBr)OC2CC1Br (centres unmarked) [Compound 5, Thuwalallene D] | higher than 15.62 μM | > 15.6 µM |  |  |  |  |
| 3.98 ± 0.6 µM |  | CCC(Br)C1CC2OC(C=C=CBr)CC=CCC2O1 (centres unmarked) [Compound 8, Thuwalallene E] | ≥ 7.81 µM | > 7.81 µM |  |  |  |  |
